# From the Kinase Knowledgebase extract (Sharma et al. 2016)
# Legend:
# [1] = target: PIK3CD (Human) (UniProt O00329); assay: Enzyme Assay
# [2] = target: PIK3CD (Human) (UniProt O00329); assay: Cell-Based Assay; conditions: u937
# [3] = target: PIK3CG (human) (UniProt P48736); assay: Assessment of PIK3CG Kinase Activity
# [4] = target: PIK3CA (human) (UniProt P42336); assay: Assessment of PIK3CA Kinase Activity
# Sequence of PIK3CA (human) (P42336 whole entry, looked up): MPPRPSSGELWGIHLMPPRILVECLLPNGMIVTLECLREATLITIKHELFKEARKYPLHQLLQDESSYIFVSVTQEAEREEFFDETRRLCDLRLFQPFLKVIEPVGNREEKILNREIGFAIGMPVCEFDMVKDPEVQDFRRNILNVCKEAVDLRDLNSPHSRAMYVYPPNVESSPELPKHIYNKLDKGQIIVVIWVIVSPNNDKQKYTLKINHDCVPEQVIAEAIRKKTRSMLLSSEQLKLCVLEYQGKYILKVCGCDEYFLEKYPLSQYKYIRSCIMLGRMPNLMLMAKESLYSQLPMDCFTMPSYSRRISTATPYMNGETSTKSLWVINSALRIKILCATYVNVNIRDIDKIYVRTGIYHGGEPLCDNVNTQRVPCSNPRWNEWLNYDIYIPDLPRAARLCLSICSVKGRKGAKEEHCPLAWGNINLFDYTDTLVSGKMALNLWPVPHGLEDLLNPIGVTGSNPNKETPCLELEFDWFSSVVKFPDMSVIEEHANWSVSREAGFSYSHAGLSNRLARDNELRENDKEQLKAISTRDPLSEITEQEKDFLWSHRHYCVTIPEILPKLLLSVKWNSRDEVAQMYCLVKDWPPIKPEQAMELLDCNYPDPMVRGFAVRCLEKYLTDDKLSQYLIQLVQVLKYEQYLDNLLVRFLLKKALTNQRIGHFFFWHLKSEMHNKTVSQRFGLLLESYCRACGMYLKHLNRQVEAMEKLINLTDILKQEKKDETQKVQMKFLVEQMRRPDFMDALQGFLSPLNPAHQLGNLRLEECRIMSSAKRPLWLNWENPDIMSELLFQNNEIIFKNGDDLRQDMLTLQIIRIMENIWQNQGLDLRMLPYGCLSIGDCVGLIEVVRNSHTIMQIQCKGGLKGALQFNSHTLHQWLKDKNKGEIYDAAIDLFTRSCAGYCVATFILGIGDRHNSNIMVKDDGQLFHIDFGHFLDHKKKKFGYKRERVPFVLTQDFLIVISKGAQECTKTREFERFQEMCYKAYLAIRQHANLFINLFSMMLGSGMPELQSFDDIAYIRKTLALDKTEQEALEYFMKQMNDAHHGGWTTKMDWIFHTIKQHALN
# Sequence of PIK3CG (human) (P48736 whole entry, looked up): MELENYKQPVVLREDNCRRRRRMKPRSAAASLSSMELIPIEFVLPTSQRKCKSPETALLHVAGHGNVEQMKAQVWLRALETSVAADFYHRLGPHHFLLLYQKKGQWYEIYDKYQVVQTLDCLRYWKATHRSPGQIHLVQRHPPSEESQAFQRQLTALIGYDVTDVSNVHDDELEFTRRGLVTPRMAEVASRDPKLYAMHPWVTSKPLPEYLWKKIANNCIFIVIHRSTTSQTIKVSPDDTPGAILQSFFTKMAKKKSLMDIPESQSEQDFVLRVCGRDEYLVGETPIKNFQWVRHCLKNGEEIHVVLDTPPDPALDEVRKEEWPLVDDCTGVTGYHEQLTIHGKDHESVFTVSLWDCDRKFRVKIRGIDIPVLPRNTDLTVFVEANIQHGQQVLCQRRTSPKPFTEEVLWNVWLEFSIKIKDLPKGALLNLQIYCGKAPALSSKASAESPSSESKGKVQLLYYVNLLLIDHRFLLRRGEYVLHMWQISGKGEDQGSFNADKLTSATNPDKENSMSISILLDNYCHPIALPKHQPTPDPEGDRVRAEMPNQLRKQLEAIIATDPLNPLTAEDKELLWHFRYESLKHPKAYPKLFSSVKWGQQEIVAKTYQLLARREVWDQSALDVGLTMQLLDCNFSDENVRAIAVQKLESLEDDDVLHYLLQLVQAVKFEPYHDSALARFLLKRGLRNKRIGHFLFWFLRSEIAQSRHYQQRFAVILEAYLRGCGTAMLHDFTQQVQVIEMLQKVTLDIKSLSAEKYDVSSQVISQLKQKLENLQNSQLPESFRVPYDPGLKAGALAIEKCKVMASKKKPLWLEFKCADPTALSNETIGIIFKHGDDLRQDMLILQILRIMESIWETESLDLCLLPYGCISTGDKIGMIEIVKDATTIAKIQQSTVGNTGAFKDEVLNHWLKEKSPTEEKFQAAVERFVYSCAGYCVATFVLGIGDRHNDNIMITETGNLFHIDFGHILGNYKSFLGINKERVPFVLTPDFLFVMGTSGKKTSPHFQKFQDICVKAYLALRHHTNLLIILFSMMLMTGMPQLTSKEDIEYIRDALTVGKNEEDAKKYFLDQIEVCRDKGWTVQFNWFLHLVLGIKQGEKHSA
# Sequence of PIK3CD (Human) (O00329 whole entry, looked up): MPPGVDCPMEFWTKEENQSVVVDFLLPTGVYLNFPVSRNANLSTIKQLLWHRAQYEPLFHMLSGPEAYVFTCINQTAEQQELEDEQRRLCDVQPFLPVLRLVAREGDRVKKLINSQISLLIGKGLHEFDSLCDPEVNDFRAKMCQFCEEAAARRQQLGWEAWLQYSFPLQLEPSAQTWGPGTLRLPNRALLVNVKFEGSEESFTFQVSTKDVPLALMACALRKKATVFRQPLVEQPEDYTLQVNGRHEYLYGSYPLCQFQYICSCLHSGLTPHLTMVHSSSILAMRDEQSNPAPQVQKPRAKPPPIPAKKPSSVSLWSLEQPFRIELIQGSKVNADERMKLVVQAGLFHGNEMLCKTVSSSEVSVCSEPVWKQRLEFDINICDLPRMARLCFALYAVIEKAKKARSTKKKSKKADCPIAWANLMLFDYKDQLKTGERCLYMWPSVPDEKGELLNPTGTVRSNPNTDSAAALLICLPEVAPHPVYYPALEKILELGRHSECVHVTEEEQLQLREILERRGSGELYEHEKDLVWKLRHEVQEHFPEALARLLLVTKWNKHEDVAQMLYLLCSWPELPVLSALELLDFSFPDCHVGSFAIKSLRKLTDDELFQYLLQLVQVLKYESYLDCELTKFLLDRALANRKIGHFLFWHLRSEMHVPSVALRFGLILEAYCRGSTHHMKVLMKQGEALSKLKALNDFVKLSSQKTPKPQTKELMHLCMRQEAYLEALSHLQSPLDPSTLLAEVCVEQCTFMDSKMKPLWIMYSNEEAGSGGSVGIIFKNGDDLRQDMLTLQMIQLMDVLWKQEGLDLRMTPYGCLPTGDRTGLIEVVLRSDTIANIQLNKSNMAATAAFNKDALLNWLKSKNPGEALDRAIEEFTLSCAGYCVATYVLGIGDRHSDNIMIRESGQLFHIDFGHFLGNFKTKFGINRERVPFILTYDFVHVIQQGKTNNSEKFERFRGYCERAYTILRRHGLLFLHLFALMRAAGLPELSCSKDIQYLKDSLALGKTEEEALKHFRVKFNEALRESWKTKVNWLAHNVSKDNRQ
SMILES,IC50 [1] [µM],IC50 [2] [µM],IC50 [3] [µM],IC50 [4] [µM]
Nc1ncnc2c1c(-c1cccc(O)c1)nn2Cc1nc2cccc(C#CCCCC(=O)Nc3ccncc3)c2c(=O)n1Cc1ccccc1Cl,,0.01 to 1,,
C#Cc1cccc2nc(Cn3nc(-c4ccc(O)cc4)c4c(N)ncnc43)n(Cc3ccc(Cl)c(Cl)c3)c(=O)c12,,< 0.01,,
Nc1ncnc2c1c(-c1ccc(O)cc1)nn2Cc1nc2cccc(C#CCCCC(=O)NCCN3CCOCC3)c2c(=O)n1Cc1ccccc1Cl,,< 0.01,,
CN(C)C(=O)CCCC#Cc1cccc2nc(Cn3nc(-c4ccc(O)cc4)c4c(N)ncnc43)n(Cc3ccccc3Cl)c(=O)c12,,< 0.01,,
COCCNC(=O)CCCC#Cc1cccc2nc(Cn3nc(-c4cccc(O)c4)c4c(N)ncnc43)n(Cc3ccccc3Cl)c(=O)c12,,< 0.01,,
C#Cc1cccc2nc(Cn3nc(-c4ccc(F)c(O)c4)c4c(N)ncnc43)n(Cc3ccccc3Cl)c(=O)c12,,< 0.01,,
Nc1ncnc2c1c(-c1ccc(O)cc1)nn2Cc1nc2cccc(C#CCCCC(=O)NC3CCOCC3)c2c(=O)n1Cc1ccccc1Cl,,< 0.01,,
COCCOCCOCC#Cc1cccc2nc(Cn3nc(-c4cccc(O)c4)c4c(N)ncnc43)n(Cc3ccccc3F)c(=O)c12,,< 0.01,,
Nc1ncnc2c1c(-c1cccc(O)c1)nn2Cc1nc2cccc(C#CCCCCC(=O)O)c2c(=O)n1Cc1ccccc1Cl,,< 0.01,,
COCC#Cc1cccc2nc(Cn3nc(-c4ccc(O)cc4)c4c(N)ncnc43)n(Cc3ccccc3Cl)c(=O)c12,,< 0.01,,
Nc1ncnc2c1c(-c1ccc(O)cc1)nn2Cc1nc2cccc(C#CCCCNC3CCCC3)c2c(=O)n1Cc1ccccc1Cl,,< 0.01,,
Nc1ncnc2c1c(-c1ccc(O)cc1)nn2Cc1nc2cccc(C#CCCCC(=O)Nc3ccncc3)c2c(=O)n1Cc1ccccc1Cl,,< 0.01,,
C#Cc1cccc2nc(Cn3nc(-c4ccc(O)cc4)c4c(N)ncnc43)n(Cc3cc(OC)ccc3F)c(=O)c12,,< 0.01,,
Nc1ncnc2c1c(-c1ccc(O)cc1)nn2Cc1nc2cccc(C#CCC3CCCC3)c2c(=O)n1Cc1ccccc1Cl,,< 0.01,,
C#Cc1cccc2nc(Cn3nc(-c4cccc(O)c4)c4c(N)ncnc43)n(Cc3cccc(C(F)(F)F)c3)c(=O)c12,,< 0.01,,
Nc1ncnc2c1c(-c1ccc(O)cc1)nn2Cc1nc2cccc(C#CCOc3ccccc3)c2c(=O)n1Cc1ccccc1Cl,,< 0.01,,
C#Cc1cccc2nc(Cn3nc(-c4cccc(O)c4)c4c(N)ncnc43)n(Cc3cccc(S(C)(=O)=O)c3)c(=O)c12,,< 0.01,,

# Second part, the molecule after the results:
IC50 [1] [µM],IC50 [2] [µM],IC50 [3] [µM],IC50 [4] [µM],SMILES
< 0.05,< 0.01,< 0.05,0.05 to 1,Cc1cnc(Cn2c(Cn3nc(-c4cccc(O)c4)c4c(N)ncnc43)nc3cccc(C#CCCCC(=O)N4CCOCC4)c3c2=O)cn1
< 0.05,< 0.01,0.05 to 1,0.05 to 1,COCCOCC#Cc1cccc2nc(Cn3nc(-c4cccc(O)c4)c4c(N)ncnc43)n(Cc3ccccc3Cl)c(=O)c12
< 0.05,< 0.01,< 0.05,0.05 to 1,CC(=O)NCC(=O)NCC#Cc1cccc2nc(Cn3nc(-c4cccc(O)c4)c4c(N)ncnc43)n(Cc3ccccc3Cl)c(=O)c12
< 0.05,< 0.01,< 0.05,1.49,Nc1ncnc2c1c(-c1ccc(O)cc1)nn2Cc1nc2cccc(C#CCCCC(=O)NC3CCNC3)c2c(=O)n1Cc1ccccc1Cl (stereo not given)
< 0.05,< 0.01,0.05 to 1,0.05 to 1,C#Cc1cccc2nc(Cn3nc(-c4ccc(O)cc4)c4c(N)ncnc43)n(Cc3cccc(C#N)c3)c(=O)c12
,< 0.01,,,C#Cc1cccc2nc(Cn3nc(-c4cccc(O)c4)c4c(N)ncnc43)n(Cc3cccc(C#N)c3)c(=O)c12
< 0.05,< 0.01,0.05 to 1,,COCCOCCOCC#Cc1cccc2nc(Cn3nc(-c4cccc(O)c4)c4c(N)ncnc43)n(Cc3ccccc3Cl)c(=O)c12
,< 0.01,,,C#Cc1cccc2nc(Cn3nc(-c4ccc(O)cc4)c4c(N)ncnc43)n(Cc3ccc(F)cc3)c(=O)c12
,< 0.01,,,Nc1ncnc2c1c(-c1ccc(O)cc1)nn2Cc1nc2cccc(C#CCCCC(=O)N3CCOCC3)c2c(=O)n1Cc1cc2ccccc2s1
,< 0.01,,,COc1cc(Cn2c(Cn3nc(-c4ccc(O)cc4)c4c(N)ncnc43)nc3cccc(C#CCCCC(=O)N4CCOCC4)c3c2=O)cc(C(F)(F)F)c1
,< 0.01,,,C#Cc1cccc2nc(Cn3nc(-c4ccc(O)cc4)c4c(N)ncnc43)n(Cc3ccc(OC)cc3F)c(=O)c12
,< 0.01,,,C#Cc1cccc2nc(Cn3nc(-c4ccc(O)cc4)c4c(N)ncnc43)n(Cc3ccc(C(F)(F)F)cc3)c(=O)c12
,< 0.01,,,Nc1ncnc2c1c(-c1cccc(O)c1)nn2Cc1nc2cccc(C#CCCCC(=O)N3CCOCC3)c2c(=O)n1Cc1ccc2occc2c1
,< 0.01,,,C#Cc1cccc2nc(Cn3nc(-c4ccc(O)cc4)c4c(N)ncnc43)n(Cc3c(F)cccc3F)c(=O)c12
,< 0.01,,,CC(C)NC(=O)CCCC#Cc1cccc2nc(Cn3nc(-c4cccc(O)c4)c4c(N)ncnc43)n(Cc3ccccc3Cl)c(=O)c12
,< 0.01,,,Cc1nc(Cn2c(Cn3nc(-c4cccc(O)c4)c4c(N)ncnc43)nc3cccc(C#CCCCC(=O)N4CCOCC4)c3c2=O)cs1
